Laboratory results taken from patent publication US9079919B2 (HOFFMANN-LA ROCHE INC., priority 2011, dated 2015).
Structures can show the parent of a compound that is named as a salt.

Experiments:
Type in all cases: cell-based
BACE1 [1] = target: T1, BACE1 (Homo sapiens, UniProt P56817); experiment: Cellular Aβ-lowering assay a) (Aβ40 ELISA); details: cellular assay a): HEK293 cells expressing human APP695, Aβ40 in supernatant by ELISA after 18-20 hrs; read-out: BACE1 cell act. Aβ40 IC50
T1 construct: Human HEK293 cells which are stably transfected with a vector expressing a cDNA of the human APP wt gene (APP695); endogenous in cells; host or cells: HEK293 cells stably transfected with human APP695 (wt)
T1 sequence (P56817 46-501): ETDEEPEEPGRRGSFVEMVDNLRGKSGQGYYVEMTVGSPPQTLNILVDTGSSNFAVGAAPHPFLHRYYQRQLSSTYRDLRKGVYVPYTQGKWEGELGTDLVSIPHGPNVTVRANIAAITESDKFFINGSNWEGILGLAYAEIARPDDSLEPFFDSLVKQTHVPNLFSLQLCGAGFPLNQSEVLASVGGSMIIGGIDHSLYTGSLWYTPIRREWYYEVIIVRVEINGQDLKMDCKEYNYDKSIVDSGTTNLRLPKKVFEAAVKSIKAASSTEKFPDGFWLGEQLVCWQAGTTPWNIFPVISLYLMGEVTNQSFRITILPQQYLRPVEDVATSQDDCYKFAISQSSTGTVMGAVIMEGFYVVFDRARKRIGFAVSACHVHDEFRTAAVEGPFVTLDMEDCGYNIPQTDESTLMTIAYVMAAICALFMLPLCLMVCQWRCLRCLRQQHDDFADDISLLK
Protocol: a) Human HEK293 cells which are stably transfected with a vector expressing a cDNA of the human APP wt gene (APP695) were used to assess the potency of the compounds in a cellular assay. The cells were seeded in 96-well microtiter plates in cell culture medium (Iscove, plus 10% (v/v) fetal bovine serum, glutamine, penicillin/streptomycin) to about 80% confluence and the compounds were added at a 10× concentration in 1/10 volume of medium without FCS containing 8% DMSO (final concentration of DMSO was kept at 0.8% v/v). After 18-20 hrs incubation at 37° C. and 5% CO2 in a humidified incubator the culture supernatant was harvested for the determination of Aβ40 concentrations. 96 well ELISA plates (e.g., Nunc MaxiSorb) were coated with monoclonal antibody which specifically recognize the C-terminal end of Aβ40 (Brockhaus et al., NeuroReport 9, 1481-1486; 1998). After blocking of non-specific binding sites with e.g. 1% BSA and washing, the culture supernatants were added in suitable dilutions together with a horseradish peroxidase-coupled Aβ detection antibody (e.g., antibody 4G8, Senetek, Maryland Heights, Mo.) and incubated for 5 to 7 hrs. Subsequently the wells of the microtiter plate were washed extensively with Tris-buffered saline containing 0.05% Tween 20 and the assay was developed with tetramethylbenzidine/H2O2 in citric acid buffer. After stopping the reaction with one volume of 1N H2SO4 the reaction was measured in an ELISA reader at 450 nm wavelength. The concentrations of Aβ in the culture supernatants were calculated from a standard curve obtained with known amounts of pure Aβ peptide.

BACE2 = target: T2, BACE2 (Rattus norvegicus, UniProt Q6IE75); experiment: Assay for BACE inhibition by measuring cellular TMEM27 cleavage; details: INS-TMEM27 cells (INS1e-derived), shed human TMEM27 by ELISA; read-out: BACE2 cell act. IC50
T2 construct: endogenous cellular BACE2 in the Ins1e rat cell line; endogenous in cells; host or cells: INS-TMEM27 (INS1e-derived rat cell line with doxycycline-inducible full-length human TMEM27)
T2 sequence (Q6IE75 63-514): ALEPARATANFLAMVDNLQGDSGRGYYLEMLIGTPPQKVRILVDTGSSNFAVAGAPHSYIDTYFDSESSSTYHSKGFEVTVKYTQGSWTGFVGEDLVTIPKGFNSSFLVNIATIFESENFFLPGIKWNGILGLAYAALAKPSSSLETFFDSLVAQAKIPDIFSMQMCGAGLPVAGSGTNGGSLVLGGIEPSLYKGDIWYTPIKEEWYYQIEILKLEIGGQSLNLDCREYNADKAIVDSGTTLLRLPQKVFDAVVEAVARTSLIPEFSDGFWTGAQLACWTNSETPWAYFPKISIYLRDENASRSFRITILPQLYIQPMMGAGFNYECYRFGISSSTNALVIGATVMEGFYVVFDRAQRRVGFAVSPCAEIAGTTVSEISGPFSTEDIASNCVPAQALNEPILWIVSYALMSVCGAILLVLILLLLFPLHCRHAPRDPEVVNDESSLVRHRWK
Description: The assay uses the principle of inhibition of human TMEM27 cleavage by endogenous cellular BACE2 in the Ins1e rat cell line and shedding from the cell surface into the culture medium, followed by detection in an ELISA assay. Inhibition of BACE2 prevents the cleavage and shedding in a dose-dependent manner.
The stable cell line “INS-TMEM27” represents an INS1e-derived cell line with inducible expression (using the TetOn system) of full-length hTMEM27 in a doxycycline-dependent manner. The cells are cultured throughout the experiment in RPMI1640+ Glutamax (Invitrogen) Penicillin/Streptomycin, 10% Fetal bovine serum, […], […], 100 micrograms/ml G418 and 100 microgram/ml hygromycin and are grown inadherent culture at 37° C. in a standard CO2 cell culture incubator.
INS-TMEM27 cells are seeded in 96-well plates. After 2 days in culture, BACE2 inhibitor is added in a range of concentrations as required by the assay and after a further two hours, doxycycline is added to a final concentration of 500 ng/ml. The cells are incubated for a further 46 hours and the supernatant harvested for detection of shed TMEM27.
An ELISA assay (using a pair of mouse anti-human-TMEM27 antibodies, raised against the extracellular domain of TMEM27) is used for detection of TMEM27 in the culture medium. An EC50 for BACE2 inhibition is calculated using the ELISA readout for each inhibitor concentration with standard curve-fitting software such as XLFit for the Excel spreadsheet program.

BACE1 [2] = target: T1, BACE1; experiment: Cellular Aβ-lowering assay b) (Abeta 40 AlphaLISA Assay); details: cellular assay b): HEK293 APP cells, Aβ40 in supernatant by AlphaLISA after 18-20 hrs; read-out: BACE1 cell act. Aβ40 IC50
Protocol: b) Alternatively, the Abeta 40 AlphaLISA Assay can be used. The HEK293 APP cells were seeded in 96 well Microtiter plates in cell culture medium (Iscove's, plus 10% (v/v) fetal bovine serum, penicillin/streptomycin) to about 80% confluency and the compounds were added at a 3× concentration in 1/3 volume of culture medium (final DMSO concentration was kept at 1% v/v). After 18-20 hrs incubation at 37° C. and 5% CO2 in a humidified incubator, the culture supernatants were harvested for the determination of Aβ 40 concentrations using Perkin-Elmer Human Amyloid beta 1-40 (high specificity) Kit (Cat#AL275C).
In a Perkin-Elmer White Optiplate-384 (Cat#6007290), 2 ul culture supernatants were combined with 2 μl of a 10× AlphaLISA Anti-hAβ Acceptor beads+Biotinylated Antibody Anti-Aβ 1-40 Mix (50 μg/mL/5 nM). After 1 hour room temperature incubation, 16 μl of a 1.25× preparation of Streptavidin (SA) Donor beads (25 μg/mL) were added and incubated for 30 minutes in the Dark. Light Emission at 615 nm was then recorded using EnVision-Alpha Reader. Levels of Aβ 40 in the culture supernatants were calculated as percentage of maximum signal (cells treated with 1% DMSO without inhibitor). The IC50 values were calculated using the Excel XLfit software.

SMILES	IC50 (BACE1 [1])	IC50 (BACE2)	IC50 (BACE1 [2])
NC1=N[C@@]2(CCOc3ccc(-c4cncc(Cl)c4)cc32)C(F)(F)CO1 [Example 19, (R)-6-(5-Chloropyridin-3-yl)-5′,5′-difluoro-5′,6′-dihydrospiro[chroman-4,4′-[1,3]oxazin]-2′-amine]	380 nM	124 nM	
NC1=N[C@@]2(C[C@]3(CCCOC3)Oc3ccc(-c4cncc(Cl)c4)cc32)C(F)(F)CO1 [Example 31, (2′S,4R)-6′-(5-Chloropyridin-3-yl)-5,5-difluoro-5,5″,6,6″-tetrahydro-4″H-dispiro[1,3-oxazine-4,4′-chromene-2′,3″-pyran]-2-amine formate]			9000 nM
N#Cc1cncc(-c2ccc3c(c2)[C@@]2(CC3)N=C(N)OCC2(F)F)c1 [Example 11, (R)-5-(2′-Amino-5′,5′-difluoro-2,3,5′,6′-tetrahydrospiro[indene-1,4′-[1,3]oxazine]-6-yl)nicotinonitrile]			3380 nM
NC1=N[C@@]2(CCSc3ccc(-c4cncc(Cl)c4)cc32)C(F)(F)CO1 [Example 32, (R)-6′-(5-Chloropyridin-3-yl)-5,5-difluoro-5,6-dihydrospiro[[1,3]oxazine-4,4′-thiochroman]-2-amine]	676 nM	1950 nM	
CC1(C)CC[C@@]2(N=C(N)OCC2(F)F)c2cc(NC(=O)c3ccc(C#N)cn3)ccc21 [Example 14, (R)—N-(2′-Amino-5′,5′-difluoro-4,4-dimethyl-3,4,5′,6′-tetrahydro-2H-spiro[naphthalene-1,4′-[1,3]oxazine]-7-yl)-5-cyanopicolinamide]	1110 nM	13000 nM	
NC1=N[C@@]2(CCOc3ccc(-c4cc(Cl)cc(Cl)c4)cc32)C(F)(F)CO1 [Example 20, (R)-6-(3,5-dichlorophenyl)-5′,5′-difluoro-5′,6′-dihydrospiro[chroman-4,4′-[1,3]oxazin]-2′-amine]	2020 nM	3990 nM	
NC1=N[C@@]2(CCc3ccc(-c4cc(Cl)cc(Cl)c4)cc32)C(F)(F)CO1 [Example 8, (R)-6-(3,5-Dichlorophenyl)-5′,5′-difluoro-2,3,5′,6′-tetrahydrospiro[indene-1,4′-[1,3]oxazin]-2′-amine]	2450 nM	2730 nM	
NC1=N[C@@]2(CCc3ccc(-c4cncc(Cl)c4)cc32)C(F)(F)CO1 [Example 9, (R)-6-(5-Chloropyridin-3-yl)-5′,5′-difluoro-2,3,5′,6′-tetrahydrospiro[indene-1,4′-[1,3]oxazin]-2′-amine]	790 nM	3580 nM	
NC1=N[C@@]2(CCOc3ccc(NC(=O)c4ncc(Cl)cc4Cl)cc32)C(F)(F)COC1 [Example 51, (R)—N-(3′-Amino-6′,6′-difluoro-6′,7′-dihydro-2′H-spiro[chroman-4,5′-[1,4]oxazepine]-6-yl)-3,5-dichloropicolinamido]	1690 nM	5870 nM	
NC1=N[C@@]2(CCOc3ccc(NC(=O)c4ccc(Cl)cn4)cc32)C(F)(F)CO1 [Example 33, (R)—N-(2′-Amino-5′,5′-difluoro-5′,6′-dihydrospiro[chroman-4,4′-[1,3]oxazine]-6-yl)-5-chloropicolinamide]	360 nM	986 nM	
COc1cncc(-c2ccc3c(c2)[C@@]2(CCO3)N=C(N)OCC2(F)F)c1 [Example 22, (R)-5′,5′-difluoro-6-(5-methoxypyridin-3-yl)-5′,6′-dihydrospiro[chroman-4,4′-[1,3]oxazin]-2′-amine]	2780 nM	926 nM	
NC1=N[C@@]2(CCOc3ccc(-c4cc(Cl)cc(Cl)c4)cc32)C(F)(F)COC1 [Example 55, (R)-6-(3,5-Dichlorophenyl)-6′,6′-difluoro-6′,7′-dihydro-2′H-spiro[chroman-4,5′-[1,4]oxazepin]-3′-amine]	3830 nM	10500 nM	

Continued by falling IC50 (BACE1 [1]), values first:

IC50 (BACE1 [1])	IC50 (BACE2)	IC50 (BACE1 [2])	SMILES
100 nM	543 nM		NC1=N[C@@]2(CCCc3ccc(-c4cncc(Cl)c4)cc32)C(F)(F)CO1 [Example 1, (R)-7-(5-Chloropyridin-3-yl)-5′,5′-difluoro-3,4,5′,6′-tetrahydro-2H-spiro[naphthalene-1,4′-[1,3]oxazin]-2′-amine]
80 nM	1920 nM		N#Cc1ccc(C(=O)Nc2ccc3c(c2)[C@@]2(CCO3)N=C(N)OCC2(F)F)nc1 [Example 34, (R)—N-(2′-Amino-5′,5′-difluoro-5′,6′-dihydrospiro[chroman-4,4′-[1,3]oxazine]-6-yl)-5-cyanopicolinamide]
80 nM	526 nM		N#Cc1cncc(-c2ccc3c(c2)[C@@]2(CCC3)N=C(N)OCC2(F)F)c1 [Example 2, (R)-5-(2′-Amino-5′,5′-difluoro-3,4,5′,6′-tetrahydro-2H-spiro[naphthalene-1,4′-[1,3]oxazine]-7-yl)nicotinonitrile]
35 nM	438 nM		NC1=N[C@@]2(CCSc3ccc(NC(=O)c4ccc(Cl)cn4)cc32)C(F)(F)CO1 [Example 42, (R)—N-(2-Amino-5,5-difluoro-5,6-dihydrospiro[[1,3]oxazine-4,4′-thiochroman]-6′-yl)-5-chloropicolinamide]
10 nM	148 nM		N#Cc1ccc(C(=O)Nc2ccc3c(c2)[C@@]2(CCS3)N=C(N)OCC2(F)F)nc1 [Example 43, (R)—N-(2-Amino-5,5-difluoro-5,6-dihydrospiro[[1,3]oxazine-4,4′-thiochroman]-6′-yl)-5-cyanopicolinamide]
5 nM	116 nM		N#Cc1ccc(C(=O)Nc2ccc3c(c2)[C@@]2(CCC3)N=C(N)OCC2(F)F)nc1 [Example 13, (R)—N-(2′-Amino-5′,5′-difluoro-3,4,5′,6′-tetrahydro-2H-spiro[naphthalene-1,4′-[1,3]oxazine]-7-yl)-5-cyanopicolinamide]
